Test results published in patent US7960556B2, “Thiadiazole derivatives for the treatment of neuro-degenerative diseases” (NV reMYND, priority 2006, dated 2011).

System: α-synuclein cytotoxicity in M17-SYNwt cells
Assay: α-synuclein cytotoxicity assay: LDH leakage from paraquat-treated M17-SYNwt neuroblastoma cells;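 also: paraquat at 32 mM co-added with compound, 40 h exposure, LDH activity released into the culture medium measured, references are DMSO-only cells and paraquat plus DMSO cells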
Settings: Homo sapiens, Neuroblastoma cell; for Emax: read-out: % Inhib.
Source text: An α-synuclein expression plasmid was constructed by sub-cloning the NcoI/XhoI fragment from 212T-SYN(WT) (Griffioen et al., Biochem Biophys Acta (2006) 1762(3):312-318) containing the cDNA of human wild type α-synuclein correspondingly into a standard mammalian expression vector pcDNA3.1 (Invitrogen) resulting into the plasmid pcDNA3.1-SYNwt. Plasmids pcDNA3.1 and pcDNA3.1-SYNwt were transfected to human neuroblastoma cells (ATCC No. CRL-2267) and independent clonal lines with the plasmids stably integrated into the genome were selected. […] Over-expression of α-synuclein in M17-SYNwt cell lines was confirmed by Western analysis.
Due to the high levels of α-synuclein M17-SYNwt cells are exquisitely sensitivity to paraquat, a well-known risk factor of synuclein-dependent neuronal degeneration. In degenerated or dead cells lactate dehydrogenase (LDH) is leaked out of the cells into the extracellular environment due to a loss of plasma-membrane integrity. This principle was used to determine cytotoxicity by quantifying the level of leaked LDH into the growth medium.
The detailed method for determining α-synuclein cytotoxicity was as follows: From appropriate precultures of M17 and M17-SYN cells were seeded at 50,000 cells/cm^2 in Optimem Reduced Serum without phenol red (available from InVitrogen, Cat. 31985-047) supplemented with 5% fetal calf serum, 1 mM sodium pyruvate, 1× non-essential amino acids, 500 μg/ml G418 0,5× antibiotic/antimycotic. After 3 hours of incubation at 37° C./5% CO2 paraquat was added to the cells (final concentration of 32 mM), together with the test compound and the cells were further incubated for 40 hours. Subsequently, LDH activity was determined using Promega Cytotox 96 Non-Radioactive cytotoxicity assay, (Cat. G1780) according the instructions of the supplier.
In these experiments, the control group consisted of M17-SYNwt cells treated with DMSO, the untreated paraquat group consisted of M17-SYNwt cells treated with paraquat and DMSO, and the treated paraquat group consisted of M17-SYNwt cells treated with paraquat and the test compound dissolved in DMSO.

SMILES | EC50 | Emax
Cc1ccccc1NC(=O)N1CCN(c2nc(Cc3ccc(F)cc3)ns2)CC1 [compound 15, N-(2-methylphenyl)-4-[3-(4-fluorobenzyl)-1,2,4-thiadiazol-5-yl]piperazine-1-carboxamide] | 5010 nM | 65%
COc1ccc(S(=O)(=O)N2CCN(c3nc(Cc4cccc(OC)c4)ns3)CC2C)cc1 (stereo not drawn) [compound 208, 1-[4-methoxyphenylsulfonyl]-4-[3-(3-methoxybenzyl)-1,2,4-thiadiazol-5-yl]-2-methyl-piperazine] | 7.3 nM | 
COc1ccc(S(=O)(=O)NCCN(C)c2nc(Cc3cccc(OC)c3)ns2)cc1 [compound 213, N′-[4-methoxyphenylsulfonyl]-N-[3-(3-methoxybenzyl)-1,2,4-thiadiazol-5-yl]-N-methylethane-1,2-diamine] | 361 nM | 94%
CCCCCCCCS(=O)(=O)N1CCN(c2nc(Cc3ccc(C)cc3)ns2)CC1 [compound 82, 1-(octylsulfonyl)-4-[3-(4-methylbenzyl)-1,2,4-thiadiazol-5-yl]piperazine] | 1580 nM | 50%
CC1CN(c2nc(Cc3ccc(F)cc3)ns2)CCN1C(=O)c1ccccc1Br (stereo not drawn) [compound 148, 1-(2-bromobenzoyl)-4-[3-(4-fluorobenzyl)-1,2,4-thiadiazol-5-yl]-2-methylpiperazine] | 860 nM | 56%
CC1CN(c2nc(Cc3ccc(F)cc3)ns2)CCN1C(=O)Cc1ccc(F)cc1 (stereo not drawn) [compound 6] |  | 75%
CCc1ccc(C(=O)N2CCN(c3nc(Cc4ccc(C)cc4)ns3)CC2)cc1 [compound 131, 1-(4-ethylbenzoyl)-4-[3-(4-methylbenzyl)-1,2,4-thiadiazol-5-yl]piperazine] | 250 nM | 91%
